According to patent publication US20250360235A1, “RADI[…] AND METHOD FOR RADIOLABELLING” (Telix Innovations SA, priority 2024, published 2025):

Assays:
[1] = Visual inspection of [68Ga]PSMA-11 solution (acceptance: colourless to slightly yellow solution, free from visible particles); type: physicochemical; parameters: key: C = Conforms to specifications
Experimental: (§1) Table 1 to Table 5 show the results of various radiolabelling experiments on radiochemical purity and the chelation yield. The radiolabelling experiments in the tables are carried out as described in: • Example 1 for when the gallium-68 source is GE Liquid target generator and EZAG GalliaPharm generator; • Example 2 for when the gallium-68 source is IRE Galli Eo generator; • Example 3 for when the gallium-68 source is GE solid target generator;
(§2) However, the experiments were carried out with the amount of ascorbic acid as indicated in the Tables 1 to 5, and the activity as indicated in the Tables 1 to 5. Radiochemical purities were measured at various times (T0, T1, T4, T6) after the radiolabelled experiments have been conducted.
(§3) The kits of Example 1, Example 2 or Example 3, with amounts of ascorbic acid as set out in Table 7 were used in the experiments for the ascorbic acid bracketing matrix. Three strengths of [^68Ga]Ga-PSMA-11 will be tested, i.e. 50 mCi/ml, 7 mCi/ml and 1 mCi/ml. Radiochemical purity was determined at different time points (TO, T1, T4 or T6), as set out in Table 7.

[2] = Radiochemical purity by HPLC over time after radiolabelling; type: physicochemical
Experimental: as §1, §2, §3

## O=C([O-])CN(CCN(CC(=O)[O-])Cc1cc(CCC(=O)NCCCCCC(=O)NCCCC[C@H](NC(=O)N[C@@H](CCC(=O)O)C(=O)O)C(=O)O)ccc1[O-])Cc1cc(CCC(=O)O)ccc1[O-].[68Ga+3].[OH3+] [[^68Ga]PSMA-11, gallium-68 radiolabelled Glu-urea-Lys-HBED-CC (gozetotide or PSMA-11)]
[1]; bracketing ~1 mCi/mL, 18.75 mg ascorbic acid, 8.9-11.5 mCi, 0.85-1.09 mCi/mL, IRE Galli Eo, n=2, T0
  Visual Inspection: C
[1]; bracketing ~1 mCi/mL, 18.75 mg ascorbic acid, 8.9-11.5 mCi, 0.85-1.09 mCi/mL, IRE Galli Eo, n=2, T1 (1 h)
  Visual Inspection: C
[1]; bracketing ~1 mCi/mL, 25 mg ascorbic acid, 8.8-12.7 mCi, 0.84-1.21 mCi/mL, 2 × IRE Galli Eo, n=2, T0
  Visual Inspection: C
[1]; bracketing ~1 mCi/mL, 25 mg ascorbic acid, 8.8-12.7 mCi, 0.84-1.21 mCi/mL, 2 × IRE Galli Eo, n=2, T1 (1 h)
  Visual Inspection: C
[1]; bracketing ~1 mCi/mL, 31.25 mg ascorbic acid, 15.2-26.9 mCi, 1.44-2.54 mCi/mL, EZAG GalliaPharm, n=2, T0
  Visual Inspection: C
[1]; bracketing ~1 mCi/mL, 31.25 mg ascorbic acid, 15.2-26.9 mCi, 1.44-2.54 mCi/mL, EZAG GalliaPharm, n=2, T1 (1 h)
  Visual Inspection: C
[1]; bracketing ~7 mCi/mL, 18.75 mg ascorbic acid, 51.0-58.0 mCi, 5.55-6.5 mCi/mL, IRE Galli Eo, n=2, T0
  Visual Inspection: C
[1]; bracketing ~7 mCi/mL, 18.75 mg ascorbic acid, 51.0-58.0 mCi, 5.55-6.5 mCi/mL, IRE Galli Eo, n=2, T4 (4 h)
  Visual Inspection: C
[1]; bracketing ~7 mCi/mL, 25 mg ascorbic acid, 51.6-74.4 mCi, 4.56-6.92 mCi/mL, 3 × GE Liquid Target, 3 × IRE Galli Eo, 3 × EZAG GalliaPharm, n=9, T0
  Visual Inspection: C
[1]; bracketing ~7 mCi/mL, 25 mg ascorbic acid, 51.6-74.4 mCi, 4.56-6.92 mCi/mL, 3 × GE Liquid Target, 3 × IRE Galli Eo, 3 × EZAG GalliaPharm, n=9, T4 (4 h)
  Visual Inspection: C
[1]; bracketing ~7 mCi/mL, 31.25 mg ascorbic acid, 61.5-62.0 mCi, 5.85-5.88 mCi/mL, EZAG GalliaPharm, n=2, T0
  Visual Inspection: C
[1]; bracketing ~7 mCi/mL, 31.25 mg ascorbic acid, 61.5-62.0 mCi, 5.85-5.88 mCi/mL, EZAG GalliaPharm, n=2, T4 (4 h)
  Visual Inspection: C
[1]; bracketing ~50 mCi/mL, 20 mg ascorbic acid, 514-544 mCi, 48.3-51.9 mCi/mL, GE Solid Target, n=2, T0
  Visual Inspection: C
[1]; bracketing ~50 mCi/mL, 20 mg ascorbic acid, 514-544 mCi, 48.3-51.9 mCi/mL, GE Solid Target, n=2, T6 (6 h)
  Visual Inspection: C
[1]; bracketing ~50 mCi/mL, 25 mg ascorbic acid, 537-551 mCi, 50.2-51.6 mCi/mL, GE Solid Target, n=3, T0
  Visual Inspection: C
[1]; bracketing ~50 mCi/mL, 25 mg ascorbic acid, 537-551 mCi, 50.2-51.6 mCi/mL, GE Solid Target, n=3, T6 (6 h)
  Visual Inspection: C
[1]; bracketing ~50 mCi/mL, 31.25 mg ascorbic acid, 500-544 mCi, 48.1-51.7 mCi/mL, GE Solid Target, n=2, T0
  Visual Inspection: C
[1]; bracketing ~50 mCi/mL, 31.25 mg ascorbic acid, 500-544 mCi, 48.1-51.7 mCi/mL, GE Solid Target, n=2, T6 (6 h)
  Visual Inspection: C
[2]; 1 mg ascorbic acid, 58.7-71.1 mCi, 7.47-8.99 mCi/mL, GE Liquid target, average of 3, T0
  Radiochemical Purity (HPLC) Ga-68 PSMA-11 (%): 100%
[2]; 1 mg ascorbic acid, 58.7-71.1 mCi, 7.47-8.99 mCi/mL, GE Liquid target, average of 3, T4 (4 h)
  Radiochemical Purity (HPLC) Ga-68 PSMA-11 (%): 100%
[2]; 1 mg ascorbic acid, 58.7-71.1 mCi, 7.47-8.99 mCi/mL, GE Liquid target, n=3, T0
  Radiochemical Purity (HPLC) Ga-68 PSMA-11 (%): C (C = conforms to specifications)
[2]; 1 mg ascorbic acid, 58.7-71.1 mCi, 7.47-8.99 mCi/mL, GE Liquid target, n=3, T4 (4 h)
  Radiochemical Purity (HPLC) Ga-68 PSMA-11 (%): C (C = conforms to specifications)
[2]; 2.5 mg ascorbic acid, 49.9-76.9 mCi, 6.31-9.72 mCi/mL, GE Liquid target, average of 3, T0
  Radiochemical Purity (HPLC) Ga-68 PSMA-11 (%): 100%
[2]; 2.5 mg ascorbic acid, 49.9-76.9 mCi, 6.31-9.72 mCi/mL, GE Liquid target, average of 3, T4 (4 h)
  Radiochemical Purity (HPLC) Ga-68 PSMA-11 (%): 100%
[2]; 2.5 mg ascorbic acid, 49.9-76.9 mCi, 6.31-9.72 mCi/mL, GE Liquid target, n=3, T0
  Radiochemical Purity (HPLC) Ga-68 PSMA-11 (%): C (C = conforms to specifications)
[2]; 2.5 mg ascorbic acid, 49.9-76.9 mCi, 6.31-9.72 mCi/mL, GE Liquid target, n=3, T4 (4 h)
  Radiochemical Purity (HPLC) Ga-68 PSMA-11 (%): C (C = conforms to specifications)
[2]; 5 mg ascorbic acid, 60-69.9 mCi, 7.61-8.81 mCi/mL, 3 × GE Liquid Target, 3 × EZAG GalliaPharm, average of 6, T0
  Radiochemical Purity (HPLC) Ga-68 PSMA-11 (%): 100%
[2]; 5 mg ascorbic acid, 60-69.9 mCi, 7.61-8.81 mCi/mL, 3 × GE Liquid Target, 3 × EZAG GalliaPharm, average of 6, T4 (4 h)
  Radiochemical Purity (HPLC) Ga-68 PSMA-11 (%): 100%
[2]; 5 mg ascorbic acid, 60-69.9 mCi, 7.61-8.81 mCi/mL, 3 × GE Liquid Target, 3 × EZAG GalliaPharm, n=6, T0
  Radiochemical Purity (HPLC) Ga-68 PSMA-11 (%): C (C = conforms to specifications)
[2]; 5 mg ascorbic acid, 60-69.9 mCi, 7.61-8.81 mCi/mL, 3 × GE Liquid Target, 3 × EZAG GalliaPharm, n=6, T4 (4 h)
  Radiochemical Purity (HPLC) Ga-68 PSMA-11 (%): C (C = conforms to specifications)
[2]; 10 mg ascorbic acid, 514-520 mCi, 49.0-66.1 mCi/mL, GE Solid Target, average of 3, T0
  Radiochemical Purity (HPLC) Ga-68 PSMA-11 (%): 100%
[2]; 10 mg ascorbic acid, 514-520 mCi, 49.0-66.1 mCi/mL, GE Solid Target, average of 3, T6 (6 h)
  Radiochemical Purity (HPLC) Ga-68 PSMA-11 (%): 100%
[2]; 10 mg ascorbic acid, 514-520 mCi, 49.0-66.1 mCi/mL, GE Solid Target, n=3, T0
  Radiochemical Purity (HPLC) Ga-68 PSMA-11 (%): C (C = conforms to specifications)
